Experimental data from patent publication US20040220164A1, “Triaza compound immunoregulatory agents” (priority 2001, published 2004).
Converted amounts (≈) assume the structure as drawn.

Assays:
HHV-7 (KHR strain) [1] = assay: Anti-HHV-7 assay (HHV-7 antigen expression, flow cytometry, day 12); format: cell-based; details: SUP-T1, read-out: IC50 for HHV-7 infection
Description: The antiviral activity of CADA against HIV-1 and RHV-7 was investigated. PBMCs and […] cell-depleted PBMCs (removed with CD8 magnetic beads; Dynal AS, Oslo, Norway), previously activated with purified PHA (2 μg/ml) and rhIL-2 (1 ng/ml) for 3 days, were pelleted and exposed to HIV-1 (1 ng p24 Ag per 10^6 cells) for 2 hours at 370C. Then the cells were washed three times with warm medium and cultured in complete medium containing rhIL-2 (1 ng/ml) in the presence or absence of different concentrations of CADA hydrochloride. The anti-HIV-1 assays were also performed in MT-4 and SupT1 cells. CADA hydrochloride was diluted in the plates, then the MT-4 cells or SupT1 cells were added and finally the T-tropic HIV-1 strains. The supernatant was collected at day 5 for MT-4 cells, day 8 for SupT1 cells and day 12 for PBMCs, and stored at −20° C. and analyzed for HIV-1 core antigen by p24 Ag ELISA (NEN, Brussels, Belgium). The SupT1 cells were refreshed on day 4, and half of the medium and cells were replaced and fresh CADA-free medium was added. For the PBMCs, fresh culture medium was added at day 6 containing rhIL-2 (but no CADA). For the anti-HHV-7 assays in PBMCs, CADA hydrochloride was diluted in a plate, 2×10˜cells were added and then HHV-7 (KHR strain) was added in complete medium containing rhIL-2 (1 ng/ml). Fresh culture medium was added again at day 6 containing rhIL-2 (but no CADA). The same infection protocol was used for the SupT1 cells, but without rhIL-2. The SupT1 cells were refreshed on day 4 and day 8, half of the medium and the cells were replaced, and fresh medium without CADA was added. The HHV-7 antigen expression was monitored (at day 12) with a specific mAb to HHV-7 (RK-4) (Advanced Biotechnologies, Columbia, Md.) by flow cytometry, as described previously (Thang, Y., et al., Antiviral Res. 43:23-35 (1999)).

[2] = Cytotoxic concentration (Example 2); format: cell-based; details: human, MT-4 cells; read-out: CC50
[3] = Cytotoxic concentration (Example 2); format: cell-based; details: human, SupT1 cells; read-out: CC50
HIV-1 and HHV-7 = assay: Selectivity index (ratio of CC50 to IC50), antiviral assays; format: cell-based; details: over the viruses and cell types tested
Description: The IC50 of CADA against the CCR5-using (R5) HIV-1 strain BaL was 0.8 μM in PBMCs. […] The IC50 of PMA for the HIV-1 strains (IIIB, RF and NL4.3) in MT-4 cells was about 0.3 nM, and the IC50 for HHV-7 infection in SupT1 cells was 0.6 nM.

CD4 [4] = target: T1, CD4 (Homo sapiens, UniProt P01730); assay: Cell surface CD4 expression by flow cytometry (anti-CD4 mAb Leu3a-PE); format: cell-based; design: To study the effect of the CADA derivatives on surface CD4 antigen expression, MT-4 and SupT1 cells were incubated; endogenous in cells; host or cells: MT-4, SupT1, PBMC; details: for percentage of cell surface CD4 expression: SupT1 cells, ATA 24 μM, CADA 16 μM, PMA 8 nM (FIG. 4)
Description: FIGS. 2A-2C. Surface CD4 expression in MT-4 cell line, SupT1 cell line and PBMCs after incubation with CADA hydrochloride (3.2 or 16 μM) for 1 and 4 days. (A) Cell surface CD4 expression of control MT-4 cells and MT-4 cells treated with CADA (3.2 μM) for 1 day or 4 days. (B) Cell surface CD4 expression of control SupT1 cells and SupT1 cells treated with CADA (3.2 μM) for 1 day or 4 days. (C) Cell surface CD4 expression of control PBMCs and PBMCs treated with CADA (16 μM) for 1 day or 4 days. The cells were stained with anti-CD4 mAb (Leu3a-PE). Percentages of fluorescent cells and MFI (mean fluorescence intensity) are indicated in each histogram.
FIG. 4. Comparison of the effects on CD4 modulation by ATA (24 μM), CADA hydrochloride (16 μM) and PMA (8 nM) in SupT1 cells after incubation with the compounds analyzed after 20 minutes, 4 hours, 1 day and 4 days.
Cells were incubated with CADA hydrochloride and the CD4 expression on the cell surface was analyzed. […] In peripheral blood mononuclear cells (PBMCs), the percentage of CD4 expression decreased to 0.2% after incubation with CADA (16 μM) for 4 days (FIG. 2).
Expression of various other surface antigens was also examined in MT-4 cells, SupT1 cells and PBMCs after incubation with CADA (16 μM) or CADA-free medium at 37° C. for 4 days. After washing with phosphate-buffered saline (PBS) containing 2% FCS(fetal calf serum), the cells were incubated with mAb (as indicated in Table 1) for 20 min at 4° C. Then the cells were washed, fixed with 1% formaldehyde and analyzed by flow cytometry. All mAbs were purchased from Becton-Dickinson (Erembodegem, Belgium).
CADA was compared with ATA and PMA with regard to their down-modulating effects. […] At day 4, the CD4 expression in SupT1 cells treated with CADA reduced to 1.2%.

HIV-1 strain NL4.3 = assay: Anti-HIV-1 assay in MT-4 cells (p24 Ag ELISA, Example 3); format: cell-based; details: Human immunodeficiency virus 1, MT4; MT-4 cells; read-out: IC50 HIV-1 (NL4.3), p24 Ag ELISA
Description: Antiviral Assays. For HIV-1, MT-4 cells were infected with the HIV-1 strain NL4.3. Briefly, five-fold dilutions of the compounds (in 100 μl) were added to 96-well flat bottom plates (Iwaki, Japan). Then, to each well, 7.5×10^4 MT-4 cells were added in 50 μl medium, followed by 50 μl of diluted HIV-1 stock (strain NL4.3). Cytopathic effect (CPE) induced by the virus was checked regularly microscopically. When strong CPE was observed (after 3 to 5 days of incubation) in untreated HIV-1 infected cells, the supernatant was collected, stored at −20° C. and analyzed for HIV-1 core antigen by p24 Ag ELISA (NEN™, PerkinElmer Life Sciences, Boston, Mass.). Finally, the IC50 value of the compounds (i.e., the concentration of the compound required for 50% reduction of HIV infection as measured by viral p24 antigen level in the supernatant of infected MT-4 cells) was calculated.

HHV-7 (KHR strain) [5] = assay: Anti-HHV-7 assay in SupT1 cells (antigen expression, flow cytometry, Example 3); format: cell-based; details: SUP-T1; SupT1 cells; read-out: IC50 HHV-7 (50% reduction of HHV-7 antigen expression)
Description: For HHV-7, five-fold dilutions of the compounds were added in 500 μl culture medium in 24-well flat bottom plates (Iwaki, Japan), whereupon 2×10^5 SupT1 cells were added in 400 μl culture medium. After 30 min incubation at room temperature, 100 μl of HHV-7 stock was added to each well. HHV-7-infected and mock-infected SupT1 cells were cultured in a final volume of 1 ml medium in the absence of the compounds. On day 4, half of the medium and the cells were replaced and fresh medium without new compound was added. This procedure was repeated every 2 or 3 days. The CPE was checked regularly microscopically. When CPE was observed, the HHV-7 antigen expression was monitored by flow cytometry, as described previously (Zhang, Y. et al. (1999) “Selective activity of various antiviral compounds against HHV-7 infection Antiviral Res. 43, 23-35.)

[6] = Cytotoxicity assay (trypan blue exclusion, propidium iodide); format: cell-based, human; details: human, read-out: CC50 (50% cytotoxic concentration)
Description: Cytotoxicity Assay. Cellular toxicity of the compounds was measured by trypan blue exclusion and also by Propidium Iodide by flow cytometry after 3 or 4 days of incubation, in parallel with the CD4 antigen expression. The CC50 value of each CADA analog is the concentration (in μg/ml) required to reduce the viability of the cells by 50%.

CD4 [7] = target: T1, CD4; assay: CD4 down-modulation, flow cytometry with FITC-conjugated anti-CD4 (SK3) mAb, MT-4 cells; format: cell-based; design: To study the effect of the CADA derivatives on surface CD4 antigen expression, MT-4 and SupT1 cells were incubated; endogenous in cells; host or cells: MT-4, SupT1, PBMC; details: for IC50: MT-4 cells, day 3, read-out: IC50 CD4 (50% inhibition of extracellular CD4 expression) (converted)
Description: Flow Cytometric Analyses. To study the effect of the CADA derivatives on surface CD4 antigen expression, MT-4 and SupT1 cells were incubated with a serial 5-fold dilution of the compounds (50, 10, 2, 0.4 and 0.08 μg/ml) or medium at 37° C. […] Briefly, after washing with phosphate-buffered saline (PBS) containing 2% fetal calf serum (FCS), cells were incubated with FITC-conjugated anti-CD4 (SK3) mAb for 30 min at 4° C. As a negative control for a specific background staining, cells were stained in parallel with Simultest Control γ1/γ^2a (Becton Dickinson). Then the cells were washed, fixed with 1% formaldehyde and analyzed by flow cytometry in a FACScalibur (Becton Dickinson, San Jose, Calif., USA). Data were acquired and analyzed with CellQuest software (Becton Dickinson). For the calculation of the CD4 receptor expression, the mean fluorescence intensity (MFI) of each sample was expressed as percentage of the MFI of control cells (after subtracting the MFI of the isotype control). Finally, the IC50 value of the compounds (i.e., the concentration of the compound required for 50% inhibition of extracellular CD4 expression) was calculated.

CD4 [8] = target: T1, CD4; assay: CD4 down-modulation, flow cytometry with FITC-conjugated anti-CD4 (SK3) mAb, SupT1 cells; format: cell-based; design: To study the effect of the CADA derivatives on surface CD4 antigen expression, MT-4 and SupT1 cells were incubated; endogenous in cells; host or cells: MT-4, SupT1, PBMC; details: day 4, read-out: IC50 CD4 (50% inhibition of extracellular CD4 expression) (converted)
Description: Flow Cytometric Analyses. To study the effect of the CADA derivatives on surface CD4 antigen expression, MT-4 and SupT1 cells were incubated with a serial 5-fold dilution of the compounds (50, 10, 2, 0.4 and 0.08 μg/ml) or medium at 37° C. Cell surface CD4 antigen expression was analyzed at day 3 (MT-4) or day 4 (SupT1). Briefly, after washing with phosphate-buffered saline (PBS) containing 2% fetal calf serum (FCS), cells were incubated with FITC-conjugated anti-CD4 (SK3) mAb for 30 min at 4° C. As a negative control for a specific background staining, cells were stained in parallel with Simultest Control γ1/γ^2a (Becton Dickinson). Then the cells were washed, fixed with 1% formaldehyde and analyzed by flow cytometry in a FACScalibur (Becton Dickinson, San Jose, Calif., USA). Data were acquired and analyzed with CellQuest software (Becton Dickinson). For the calculation of the CD4 receptor expression, the mean fluorescence intensity (MFI) of each sample was expressed as percentage of the MFI of control cells (after subtracting the MFI of the isotype control). Finally, the IC50 value of the compounds (i.e., the concentration of the compound required for 50% inhibition of extracellular CD4 expression) was calculated.

| Compound | IC50 (HHV-7 (KHR strain) [1]) | CC50 [2] | CC50 [3] | selectivity index (SI), ratio of CC50 to IC50 (HIV-1 and HHV-7) | percentage of cell surface CD4 expression (CD4 [4]; 20 minutes) | percentage of cell surface CD4 expression (CD4 [4]; 4 hours) | percentage of cell surface CD4 expression (CD4 [4]; 1 day) | percentage of cell surface CD4 expression (CD4 [4]; 4 days) | IC50 (HIV-1 strain NL4.3) | IC50 (HHV-7 (KHR strain) [5]) | CC50 ([6]; MT-4 cells) | CC50 ([6]; SupT1 cells) | down-regulation of CD4 expression (in words) (CD4 [4]) | IC50 (CD4 [7]) | CD4 down-modulating activity compared with CADA or parent analog (in words) (CD4 [7]; structure-activity discussion of Table 5 (MT-4 and SupT1 cells)) | IC50 (CD4 [8]) | CD4 down-modulating activity, fold less active than CADA (CD4 [7]; compared to CADA, MT-4 cells (stated for some compounds)) |
| --- | --- | --- | --- | --- | --- | --- | --- | --- | --- | --- | --- | --- | --- | --- | --- | --- | --- |
| CCCCCCCCCCCCCC(=O)O[C@@H]1[C@@H](C)[C@@]2(O)[C@@H](C=C(CO)C[C@]3(O)C(=O)C(C)=C[C@@H]23)[C@@H]2C(C)(C)[C@]12OC(C)=O [PMA, Phorbol myristate acetate, reference compound] | 0.0006 µM | 0.0021 µM | 0.0015 µM | 2-7 | only a slight CD4 decrease | dramatically decreased | almost undetectable | 81.6% | – | – | – | – | – | – | – | – | – |
| C=C1CN(S(=O)(=O)c2ccc(C)cc2)CCCN(CC2CC2)CCCN(S(=O)(=O)c2ccc(C)cc2)C1 [QJ041] | – | – | – | – | – | – | – | – | 3.66 µg/mL (≈ 6.71 µM) | 1.76 µg/mL (≈ 3.22 µM) | 18.6 µg/mL (≈ 34.1 µM) | 21.9 µg/mL (≈ 40.1 µM) | down-regulate CD4 expression | 6.38 µM | reduced the activity | 7.6 µM | – |
| C=C1CN(S(=O)(=O)c2ccc(C)cc2)CCCN(Cc2ccncc2)CCCN(S(=O)(=O)c2ccc(C)cc2)C1 [QJ030] | – | – | – | – | – | – | – | – | 2.36 µg/mL (≈ 4.05 µM) | 1.59 µg/mL (≈ 2.73 µM) | 21.3 µg/mL (≈ 36.5 µM) | > 50 µg/mL | down-regulate CD4 expression | 4.41 µM | – | 12.4 µM | 9 fold |
